The supplement of paper PMC10883282

Assays:
Assay in all cases: relative viability vs DMSO control (72 h) (fraction); higher = more viable cells
SYO-1 = tested on: SYO-1
Procedure, shortened: (§1)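 Sarcoma cell lines were seeded in 384-well plates at densities chosen for 80–90% confluence, then 24 h later given 2.5 µl of serially diluted compound drawn from source plates spanning 10 mM to 0.0002 mM. They were held 72 h at 37 °C, 5% CO2, with 0.1% DMSO vehicle and a 5 µM positive control included. Relative viability was read with ATPLite as percent growth and averaged over up to triplicate wells. Rescaling placed full at 1 and none at 0.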

SW872 = tested on: SW872
Procedure, shortened: as §1

KHOS-NP = tested on: KHOS-NP
Procedure, shortened: as §1

SW684 = tested on: SW684
Procedure, shortened: as §1

HT1080 = tested on: HT1080
Procedure, shortened: as §1

G401 = tested on: G401
Procedure, shortened: as §1

SK-LMS-1 = tested on: SK-LMS-1
Procedure, shortened: as §1

VA-ES-BJ = tested on: VA-ES-BJ
Procedure, shortened: as §1

HS729 = tested on: HS729
Procedure, shortened: as §1

A204 = tested on: A204
Procedure, shortened: as §1

SW1353 = tested on: SW1353
Procedure, shortened: as §1

MES-SA = tested on: MES-SA
Procedure, shortened: as §1

COc1cc2c(Oc3ccc4[nH]c(C)cc4c3F)ccnc2cc1OCC1(N)CC1 [Anlotinib]
Conditions	relative viability
A204, 0.00017 µM	1.08
A204, 0.00051 µM	1.08
A204, 0.00152 µM	1.05
A204, 0.00457 µM	1.05
A204, 0.01372 µM	1.05
A204, 0.04115 µM	0.997
A204, 0.1235 µM	0.829
A204, 0.3704 µM	0.475
A204, 1.111 µM	0.36
A204, 3.333 µM	0.18
A204, 10 µM	0.0656
G401, 0.00017 µM	0.964
G401, 0.00051 µM	0.986
G401, 0.00152 µM	1.01
G401, 0.00457 µM	0.988
G401, 0.01372 µM	0.976
G401, 0.04115 µM	0.982
G401, 0.1235 µM	0.955
G401, 0.3704 µM	0.89
G401, 1.111 µM	0.773
G401, 3.333 µM	0.445
G401, 10 µM	0.163
HS729, 0.00017 µM	0.944
HS729, 0.00051 µM	0.908
HS729, 0.00152 µM	0.951
HS729, 0.00457 µM	0.917
HS729, 0.01372 µM	0.935
HS729, 0.04115 µM	0.909
HS729, 0.1235 µM	0.911
HS729, 0.3704 µM	0.795
HS729, 1.111 µM	0.769
HS729, 3.333 µM	0.678
HS729, 10 µM	0.383
HT1080, 0.00017 µM	1.023
HT1080, 0.00051 µM	1.03
HT1080, 0.00152 µM	1.04
HT1080, 0.00457 µM	1.03
HT1080, 0.01372 µM	1.05
HT1080, 0.04115 µM	1.05
HT1080, 0.1235 µM	1.07
HT1080, 0.3704 µM	1.08
HT1080, 1.111 µM	1.1
HT1080, 3.333 µM	1.02
HT1080, 10 µM	0.0879
KHOS-NP, 0.00017 µM	1.06
KHOS-NP, 0.00051 µM	1.06
KHOS-NP, 0.00152 µM	1.06
KHOS-NP, 0.00457 µM	1.06
KHOS-NP, 0.01372 µM	1.07
KHOS-NP, 0.04115 µM	1.05
KHOS-NP, 0.1235 µM	1.04
KHOS-NP, 0.3704 µM	1.05
KHOS-NP, 1.111 µM	1.04
KHOS-NP, 3.333 µM	0.735
KHOS-NP, 10 µM	0.264
MES-SA, 0.00017 µM	0.921
MES-SA, 0.00051 µM	0.9145
MES-SA, 0.00152 µM	0.918
MES-SA, 0.00457 µM	0.9154
MES-SA, 0.01372 µM	0.947
MES-SA, 0.04115 µM	0.949
MES-SA, 0.1235 µM	0.924
MES-SA, 0.3704 µM	0.951
MES-SA, 1.111 µM	0.841
MES-SA, 3.333 µM	0.271
MES-SA, 10 µM	0.115
SK-LMS-1, 0.00017 µM	1.08
SK-LMS-1, 0.00051 µM	1.06
SK-LMS-1, 0.00152 µM	1.08
SK-LMS-1, 0.00457 µM	1.05
SK-LMS-1, 0.01372 µM	1.06
SK-LMS-1, 0.04115 µM	1.05
SK-LMS-1, 0.1235 µM	1.04
SK-LMS-1, 0.3704 µM	1.03
SK-LMS-1, 1.111 µM	0.85
SK-LMS-1, 3.333 µM	0.416
SK-LMS-1, 10 µM	0.0427
SW684, 0.00017 µM	1.15
SW684, 0.00051 µM	1.09
SW684, 0.00152 µM	1.11
SW684, 0.00457 µM	1.11
SW684, 0.01372 µM	1.12
SW684, 0.04115 µM	1.14
SW684, 0.1235 µM	1.13
SW684, 0.3704 µM	1.11
SW684, 1.111 µM	1.07
SW684, 3.333 µM	0.847
SW684, 10 µM	0.502
SW872, 0.00017 µM	0.962
SW872, 0.00051 µM	1.01
SW872, 0.00152 µM	0.985
SW872, 0.00457 µM	1
SW872, 0.01372 µM	1.02
SW872, 0.04115 µM	0.996
SW872, 0.1235 µM	1.01
SW872, 0.3704 µM	1
SW872, 1.111 µM	0.957
SW872, 3.333 µM	0.676
SW872, 10 µM	0.437
SW1353, 0.00017 µM	0.9631
SW1353, 0.00051 µM	0.99
SW1353, 0.00152 µM	0.985
SW1353, 0.00457 µM	0.99
SW1353, 0.01372 µM	0.95
SW1353, 0.04115 µM	0.976
SW1353, 0.1235 µM	0.9632
SW1353, 0.3704 µM	0.937
SW1353, 1.111 µM	0.88
SW1353, 3.333 µM	0.551
SW1353, 10 µM	0.254
SYO-1, 0.00017 µM	0.921
SYO-1, 0.00051 µM	0.923
SYO-1, 0.00152 µM	0.92
SYO-1, 0.00457 µM	0.884
SYO-1, 0.01372 µM	0.856
SYO-1, 0.04115 µM	0.817
SYO-1, 0.1235 µM	0.679
SYO-1, 0.3704 µM	0.529
SYO-1, 1.111 µM	0.46
SYO-1, 3.333 µM	0.328
SYO-1, 10 µM	0.115
VA-ES-BJ, 0.00017 µM	0.975
VA-ES-BJ, 0.00051 µM	0.993
VA-ES-BJ, 0.00152 µM	0.987
VA-ES-BJ, 0.00457 µM	0.979
VA-ES-BJ, 0.01372 µM	0.977
VA-ES-BJ, 0.04115 µM	0.978
VA-ES-BJ, 0.1235 µM	0.997
VA-ES-BJ, 0.3704 µM	1.022
VA-ES-BJ, 1.111 µM	0.983
VA-ES-BJ, 3.333 µM	0.62
VA-ES-BJ, 10 µM	0.505
